PubChem BioAssay AID2418 (NMMLSC, 2010)
Calls of active or inactive are those of the source.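 Rule for the calls: active = compounds reducing bradykinin-triggered filopodia by more than 10% inhibition at 10 microM; inactive = the rest.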

system: Swiss 3T3 bradykinin-induced filopodia, phalloidin imaging; assay: Cdc42-linked filopodia blockade in 3T3 fibroblasts – imaging, 3T3 cells, bradykinin stimulation, orthogonal assay for Ras-related GTPase inhibitor project (AID 2418); settings: at 10 µM; hits give high values

SMILES	inhibition
Cc1ccc(C2CC(c3ccccc3)=NN2c2ccc(S(N)(=O)=O)cc2)cc1 (stereo not drawn)	-11% (inactive)
COc1ccc(C2CC(c3ccccc3)=NN2c2ccc(S(N)(=O)=O)cc2)cc1 (stereo not drawn)	56%
Cc1cccc(C2CC(c3ccccc3)=NN2c2ccc(S(N)(=O)=O)cc2)c1 (stereo not drawn)	19%
